# Laboratory results taken from paper PMC3408606 (Thrombosis and haemostasis, 2011).
# Like-named read-outs stand apart in the source and are kept apart here.
# How the values were obtained:
# triplatin [1] = target: T1, triplatin (Triatoma infestans, UniProt Q18NS7)
# triplatin [2] = target: T1, triplatin; assay: biochemical
# ApoD = assay: Isothermal titration calorimetry of ligand binding to ApoD; conditions: ITC, ApoD expressed in HEK293 cells
# platelets = assay: Platelet aggregation; assay type: cell-based, human; conditions: for Effect on ADP-induced platelet aggregation: indometacin 50 μM
# T1 sequence (Q18NS7 19-182 limits assumed): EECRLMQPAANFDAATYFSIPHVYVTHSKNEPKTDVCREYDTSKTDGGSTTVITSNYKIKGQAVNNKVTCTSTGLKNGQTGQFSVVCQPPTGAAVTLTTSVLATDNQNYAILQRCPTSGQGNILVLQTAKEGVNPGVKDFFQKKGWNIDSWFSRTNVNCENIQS
smiles,measurement,setting,value
CCCCC/C=C\C/C=C\C[C@H](O)/C=C/C=C\CCCC(=O)O [9s-HETE],Kd,triplatin [1],> 1000 nM
CCCCC/C=C\C[C@H](O)/C=C/C=C\C/C=C\CCCC(=O)O [12(S)-HETE],Binding to triplatin,"triplatin [1]; ITC, Figure 3 or not shown",not observed
CCCCC[C@H](O)/C=C/C=C\C/C=C\C/C=C\CCCC(=O)O [15s-HETE],Kd,triplatin [2],> 1000 nM
O=C(O)CCC/C=C\C/C=C\C/C=C\C/C=C\CCCCCO [20-HETE],Binding to triplatin,"triplatin [1]; ITC, Figure 3 or not shown",not observed
"Nc1ncnc2c1ncn2[C@@H]1O[C@H](COP(=O)(O)OP(=O)(O)O)[C@@H](O)[C@H]1O [ADP, adenosine diphosphate]",Binding to triplatin,"triplatin [1]; ITC, Figure 3 or not shown",not observed
"CCCCC/C=C\C/C=C\C/C=C\C/C=C\CCCC(=O)O [Arachidonic acid, arachidonic acid]",Binding to ApoD,ApoD,failed to detect binding
same,Binding to triplatin,"triplatin [1]; ITC, Figure 3 or not shown",not observed
"NCCc1c[nH]cn1 [Histamine, histamine]",Binding to triplatin,"triplatin [1]; ITC, Figure 3 or not shown",not observed
CCCCC/C=C\C\C=C/C=C/C=C/[C@@H](SC[C@H](NC(=O)CC[C@H](N)C(=O)O)C(=O)NCC(=O)O)[C@@H](O)CCCC(=O)O [LTC4],Binding to triplatin,triplatin [1],not observed
CCCCC[C@H](O)/C=C/[C@H]1[C@H](O)CC(=O)[C@@H]1CCCCCCC(=O)O [PGE1],Binding to triplatin,triplatin [1],not observed
CCCCC[C@H](O)/C=C/[C@@H]1[C@@H](C/C=C\CCCC(=O)O)[C@@H](O)C[C@H]1O [PGF2α],Binding to ApoD,ApoD,failed to detect binding
same,ΔG,"triplatin [1]; calculated free energy, ITC 30°C, n.d. = no binding detected",-9.25 kcal/mol
same,Kd,triplatin [2],215 ± 10 nM
CCCCC[C@H](O)/C=C/[C@H]1C(=O)C=C[C@@H]1C/C=C\CCCC(=O)O [PGJ2],Kd,triplatin [1],111 ± 3.4 nM
same,TΔS,triplatin [1],-1.49 kcal/mol
same,ΔG,triplatin [1],-9.65 kcal/mol
same,ΔH,triplatin [1],-11.14 ± 0.38 kcal/mol
O=C(O)CCC/C=C\C[C@@H]1[C@H](CNNC(=O)Nc2ccccc2)[C@H]2CC[C@@H]1O2 [SQ29548],Inhibition of collagen-induced platelet aggregation,platelets,partial inhibition
CCCCC[C@H](O)/C=C/[C@H]1OC(O)C[C@H](O)[C@@H]1C/C=C\CCCC(=O)O (stereo partly shown) [TXB2],Kd,triplatin [1],355 ± 6.7 nM
same,TΔS,triplatin [1],-2.58 kcal/mol
same,ΔG,triplatin [1],-8.95 kcal/mol
same,ΔH,triplatin [1],-11.53 ± 0.92 kcal/mol
CCCCC[C@H](O)/C=C/[C@@H]1[C@@H](C/C=C\CCCC(=O)O)[C@H]2CO[C@@H]1C2 [U46619],Kd,triplatin [1],294 ± 51 nM
same,TΔS,triplatin [1],-2.46 kcal/mol
same,ΔG,triplatin [1],-9.06 kcal/mol
same,ΔH,triplatin [1],-11.52 ± 0.38 kcal/mol
CCCCC[C@H](O)/C=C/[C@H]1CC2CC(C2)[C@@H]1C/C=C\CCCC(=O)O [cTXA2],Binding to ApoD,ApoD,failed to detect binding
same,Kd,triplatin [1],369 ± 103 nM
same,TΔS,triplatin [1],-3.90 kcal/mol
same,ΔG,triplatin [1],-8.93 kcal/mol
same,ΔH,triplatin [1],-12.83 ± 0.73 kcal/mol
COc1ccc2c(c1)c(CC(=O)O)c(C)n2C(=O)c1ccc(Cl)cc1 [indometacin],Effect on ADP-induced platelet aggregation,platelets; ADP 1 μM (low dose),not affected
same,Effect on ADP-induced platelet aggregation,platelets; ADP 10 μM,attenuated
same,Inhibition of collagen-induced platelet aggregation,"platelets; collagen 6.6 μg/ml, inhibitor alone: indometacin 50 μM, SQ29548 0.2 μM, triplatin 1 μM",partial inhibition
